Activity calls are given as the source filed them.
Legend:
[1] = viability loss in MITF-independent A375 cells – cell-based, CellTiter-Glo luminescence, dry powder, set 2, counter-screen for MITF inhibitor project, dose response (AID 624489); type: functional; conditions: A-375;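 note: actives are compounds lowering A375 viability meaning general cytotoxicity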
[2] = Luminescence Cell-Based/Microorganism Confirmation at Dose of Inhibitors of Trypanosoma cruzi Infection. [Related pubchem assays: 1885, 1968 ]; type: functional
HEK293 [3] = assay: cells; type: functional, cell-based; conditions: Homo sapiens
HEK293 [4] = assay: cells; type: functional, cell-based; conditions: Homo sapiens; remark: listed apart in the source
HEK293 [5] = assay: cells; type: functional, cell-based; conditions: Homo sapiens; remark: listed apart in the source
[6] = target: Cystic fibrosis transmembrane conductance regulator/Golgi-associated PDZ and coiled-coil motif-containing protein (Homo sapiens, UniProt P13569+Q9HD26); assay: potency against CAL PDZ-peptide interaction – biochemical, fluorescence polarization, Cerulean-tagged CAL PDZ, cherry-picks, dose response (AID 504773)
Chain of Cystic fibrosis transmembrane conductance regulator/Golgi-associated PDZ and coiled-coil motif-containing protein (P13569 whole entry, other chains not shown): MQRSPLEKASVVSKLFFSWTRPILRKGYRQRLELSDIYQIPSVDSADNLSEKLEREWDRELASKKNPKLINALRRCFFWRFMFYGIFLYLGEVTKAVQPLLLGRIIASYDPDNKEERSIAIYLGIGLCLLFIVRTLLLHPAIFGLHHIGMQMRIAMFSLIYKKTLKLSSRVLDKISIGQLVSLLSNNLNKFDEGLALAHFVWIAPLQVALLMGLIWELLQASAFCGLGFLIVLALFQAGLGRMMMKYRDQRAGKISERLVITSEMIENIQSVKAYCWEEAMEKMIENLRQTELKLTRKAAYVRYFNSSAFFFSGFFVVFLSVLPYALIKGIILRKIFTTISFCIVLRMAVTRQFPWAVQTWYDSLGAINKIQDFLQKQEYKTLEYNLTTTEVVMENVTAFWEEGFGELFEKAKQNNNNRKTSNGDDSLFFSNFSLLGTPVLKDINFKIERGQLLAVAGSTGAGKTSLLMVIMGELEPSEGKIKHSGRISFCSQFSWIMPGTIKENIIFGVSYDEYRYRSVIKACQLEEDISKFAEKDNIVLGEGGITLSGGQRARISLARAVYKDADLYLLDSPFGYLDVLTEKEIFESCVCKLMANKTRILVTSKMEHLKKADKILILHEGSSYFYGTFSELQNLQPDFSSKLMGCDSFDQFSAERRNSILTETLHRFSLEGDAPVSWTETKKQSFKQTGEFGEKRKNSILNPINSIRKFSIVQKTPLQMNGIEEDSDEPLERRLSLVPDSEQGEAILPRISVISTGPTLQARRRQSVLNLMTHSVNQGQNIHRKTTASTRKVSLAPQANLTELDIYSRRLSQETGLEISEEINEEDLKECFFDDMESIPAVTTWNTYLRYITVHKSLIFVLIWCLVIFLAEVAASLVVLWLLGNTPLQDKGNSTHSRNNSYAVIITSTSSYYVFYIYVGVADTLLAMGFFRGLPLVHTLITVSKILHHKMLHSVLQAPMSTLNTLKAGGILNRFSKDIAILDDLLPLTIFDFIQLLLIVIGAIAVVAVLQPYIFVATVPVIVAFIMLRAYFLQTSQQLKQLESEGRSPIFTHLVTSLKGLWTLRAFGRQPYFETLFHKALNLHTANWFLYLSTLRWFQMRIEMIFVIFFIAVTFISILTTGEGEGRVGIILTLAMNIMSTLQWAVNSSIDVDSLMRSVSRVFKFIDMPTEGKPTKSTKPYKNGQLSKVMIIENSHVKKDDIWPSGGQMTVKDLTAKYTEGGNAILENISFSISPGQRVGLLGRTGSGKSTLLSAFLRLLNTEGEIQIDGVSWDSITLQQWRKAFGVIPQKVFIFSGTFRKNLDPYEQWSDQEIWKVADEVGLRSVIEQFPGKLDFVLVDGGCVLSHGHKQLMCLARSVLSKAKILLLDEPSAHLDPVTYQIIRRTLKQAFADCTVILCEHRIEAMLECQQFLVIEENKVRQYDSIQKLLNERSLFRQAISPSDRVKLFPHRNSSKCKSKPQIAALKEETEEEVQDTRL

[7] = target: T1, Heat shock factor protein 1 (Mus musculus, UniProt P38532); assay: enhancement of HSF1-driven luciferase signal – cell-based, NIH3T3, luminescence, dose retest, confirmation (AID 435004); type: functional;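 note: stress induced by proteasome inhibitor MG132 added 30 min after compound; luciferase reporter driven by HSF1 response element in NIH3T3 cells; actives raise luminescence as potentiators of the MG132 stress response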
T1 sequence (P38532 whole entry): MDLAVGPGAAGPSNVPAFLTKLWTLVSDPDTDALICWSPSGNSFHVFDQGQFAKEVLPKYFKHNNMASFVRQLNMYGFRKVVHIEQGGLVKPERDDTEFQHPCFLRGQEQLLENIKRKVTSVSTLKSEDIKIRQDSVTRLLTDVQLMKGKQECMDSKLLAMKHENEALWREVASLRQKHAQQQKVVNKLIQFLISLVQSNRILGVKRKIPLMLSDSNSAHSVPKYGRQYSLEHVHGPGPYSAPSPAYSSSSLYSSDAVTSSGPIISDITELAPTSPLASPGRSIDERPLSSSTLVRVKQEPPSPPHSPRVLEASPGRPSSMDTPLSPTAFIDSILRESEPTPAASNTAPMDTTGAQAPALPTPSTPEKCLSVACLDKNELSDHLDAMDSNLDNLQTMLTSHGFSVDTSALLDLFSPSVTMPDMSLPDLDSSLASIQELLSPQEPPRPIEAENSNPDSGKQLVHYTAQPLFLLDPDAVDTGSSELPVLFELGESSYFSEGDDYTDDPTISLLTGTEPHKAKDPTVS

NS3 = NS3 (Hepatitis C virus, UniProt A3EZJ3); assay: PubChem AID 2173; set-up: species or system Hepacivirus hominis
Chain of NS3 (A3EZJ3 whole entry): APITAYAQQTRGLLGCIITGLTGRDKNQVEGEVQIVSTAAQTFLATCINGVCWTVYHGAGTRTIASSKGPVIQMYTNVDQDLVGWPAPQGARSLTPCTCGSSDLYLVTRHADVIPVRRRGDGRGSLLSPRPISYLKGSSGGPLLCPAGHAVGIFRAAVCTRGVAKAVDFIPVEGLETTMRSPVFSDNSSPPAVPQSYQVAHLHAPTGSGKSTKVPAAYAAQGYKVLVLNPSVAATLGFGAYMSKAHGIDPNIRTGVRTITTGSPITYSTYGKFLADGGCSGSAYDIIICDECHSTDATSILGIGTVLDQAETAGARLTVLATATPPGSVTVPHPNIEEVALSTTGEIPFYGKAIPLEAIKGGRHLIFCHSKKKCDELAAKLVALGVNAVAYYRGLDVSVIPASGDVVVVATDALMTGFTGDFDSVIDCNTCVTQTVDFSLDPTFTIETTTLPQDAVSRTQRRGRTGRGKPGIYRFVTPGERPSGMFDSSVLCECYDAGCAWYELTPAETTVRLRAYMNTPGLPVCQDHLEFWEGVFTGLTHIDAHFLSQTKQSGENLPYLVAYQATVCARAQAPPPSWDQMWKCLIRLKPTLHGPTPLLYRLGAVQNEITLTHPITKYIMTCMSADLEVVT

In the case of `O=C(CNc1cccc2ccccc12)N/N=C/c1ccc([N+](=O)[O-])o1`, the AC50 [1] is reported as > 70 µM (inactive), the EC50 [2] is reported as 0.022 µM (active) and the IC50 (HEK293 [3]) is reported as 14.3 µM (active). For the same molecule, the IC50 (HEK293 [4]) was > 20 µM (inactive) and the IC50 (HEK293 [5]) was 15.8 µM (active).
For `O=C(O)CSc1cc(NS(=O)(=O)c2ccc(Br)cc2)c2ccccc2c1O`, the AC50 [6] was 28.4 µM (active) and the EC50 [7] was > 260 µM (inactive).
In the case of `Cc1ccc(NC(=O)C2=C(c3ccccc3)S(=O)(=O)CCS2(=O)=O)cc1`, the IC50 (NS3) is reported as 9.23 µM (active).

Source: ChEMBL document CHEMBL1201862, “PubChem BioAssay data set” (2004)
